According to patent publication US20260315468A1, “PHARMACEUTICAL COMPOSITION AND USE THEREOF” (SHANGHAI ALLIST PHARMACEUTICAL CO., LTD., priority 2022, published 2026):

Tests used:
Assay in all cases: Anti-proliferation, CellTiter-Glo Luminescent Cell Viability Assay
Type in all cases: cell-based
Ba/F3 EGFR-Del19/C797S = settings: Mus musculus, BaF3, 72 h, 3 days
From the text: (§1) The objective of the test example 1 was to evaluate the anti-proliferation effect of Furmonertinib mesilate on 18 cell lines (Ba/F3 EGFR-G719S, Ba/F3 EGFR-S768I, Ba/F3 EGFR-G724S, Ba/F3 EGFR-L718Q, Ba/F3 EGFR-Del19/G724S, Ba/F3 EGFR-E709H, Ba/F3 EGFR-L747S, Ba/F3 EGFR-E709V, Ba/F3 EGFR-L747V, Ba/F3 EGFR-E709-710>D, Ba/F3 EGFR-E709A, Ba/F3 EGFR-Del19/C797S, Ba/F3 EGFR-L858R/C797S, Ba/F3 EGFR-L747S/G719A, Ba/F3-EGFR-L858R-L718V, Ba/F3-EGFR-L858R-L718Q, Ba/F3-EGFR-E709K-G719A, and Ba/F3 EGFR-L861Q) using standard CellTiter-Glo® Luminescent Cell Viability Assay. Further, AZD9291 was used as control compound.
(§2) Cell culture: Ba/F3 EGFR-G719S, Ba/F3 EGFR-S768I, Ba/F3 EGFR-G724S, Ba/F3 EGFR-L718Q, Ba/F3 EGFR-Del19/G724S, Ba/F3 EGFR-E709H, Ba/F3 EGFR-L747S, Ba/F3 EGFR-E709V, Ba/F3 EGFR-L747V, Ba/F3 EGFR-E709-710>D, Ba/F3 EGFR-E709A, Ba/F3 EGFR-Del19/C797S, Ba/F3 EGFR-L858R/C797S, Ba/F3 EGFR-L747S/G719A, Ba/F3-EGFR-L858R-L718V, Ba/F3-EGFR-L858R-L718Q, Ba/F3-EGFR-E709K-G719A, and Ba/F3 EGFR-L861Q engineered cells were obtained from Kyinno, and maintained at 37° C. with 5% CO2, in the RPMI1640 media supplemented with 10% fetal bovine serum.
(§3) The cells during the logarithmic growth period were harvested and counted by using blood counting chamber. The cell viability was over 90% which was determined by trypan blue assay. The cell concentration was adjusted with culture medium. 90 μl cell suspensions was added to two 96-well plates to obtain the final cell density of 3000 cells per well. The plates were incubated in humidified incubator at 37° C. with 5% CO2.
(§4) The solution of tested compounds (Furmonertinib mesilate and AZD9291) was diluted 1000-fold with DMSO. Then, said DMSO solution was diluted 100-fold with PBS (Phosphate Buffered Saline) to obtain 10× working solution. And 10× reference control solution was prepared by Phosphate Buffered Saline (PBS). 10 μl working solution (10×) was dispensed to each well (triplicate for each concentration). (The top concentration was 3160 nM, 3.16-fold dilution and 10 different concentrations. The final concentration of DMSO in culture medium was 0.1% [v/v]). The plate was cultured for 3 days.
(§5) On Day 3, CellTiter-Glo® reagent (a luciferase ATP bioluminescence detection reagent) was thawed, and then the cell plate was equilibrated at room temperature for approximately 30 minutes. 100 μl CellTiter-Glo® Reagent which was equal to the volume of cell culture medium present in each well was added. The obtained content was mixed for 5 minutes on an orbital shaker to induce cell lysis. The cell plate was incubated at room temperature for 20 minutes to stabilize luminescent signal. The luminescence was recorded by using Multi-mode Microplate Reader.
(§6) [formula] • blank control: medium control; • vehicle control: culture medium with 0.1% DMSO
(§7) The graphical curves were fitted using a nonlinear regression model with a sigmoidal dose response.

Ba/F3 EGFR-Del19/G724S = settings: Mus musculus, BaF3, 72 h, 3 days
From the text: as §1, §2, §3, §4, §5, §6, §7

Ba/F3 EGFR-E709-710 > D = settings: Mus musculus, BaF3, 72 h, 3 days
From the text: as §1, §2, §3, §4, §5, §6, §7

Ba/F3 EGFR-E709A = settings: Mus musculus, BaF3, 72 h, 3 days
From the text: as §1, §2, §3, §4, §5, §6, §7

Ba/F3 EGFR-E709H = settings: Mus musculus, BaF3, 72 h, 3 days
From the text: as §1, §2, §3, §4, §5, §6, §7

Ba/F3 EGFR-E709V = settings: Mus musculus, BaF3, 72 h, 3 days
From the text: as §1, §2, §3, §4, §5, §6, §7

Ba/F3 EGFR-G719S = settings: Mus musculus, BaF3, 72 h, 3 days
From the text: as §1, §2, §3, §4, §5, §6, §7

Ba/F3 EGFR-G724S = settings: Mus musculus, BaF3, 72 h, 3 days
From the text: as §1, §2, §3, §4, §5, §6, §7

Ba/F3 EGFR-L718Q = settings: Mus musculus, BaF3, 72 h, 3 days
From the text: as §1, §2, §3, §4, §5, §6, §7

Ba/F3 EGFR-L747S/G719A = settings: Mus musculus, BaF3, 72 h, 3 days
From the text: as §1, §2, §3, §4, §5, §6, §7

Ba/F3 EGFR-L747S = settings: Mus musculus, BaF3, 72 h, 3 days
From the text: as §1, §2, §3, §4, §5, §6, §7

Ba/F3 EGFR-L747V = settings: Mus musculus, BaF3, 72 h, 3 days
From the text: as §1, §2, §3, §4, §5, §6, §7

Ba/F3 EGFR-L858R/C797S = settings: Mus musculus, BaF3, 72 h, 3 days
From the text: as §1, §2, §3, §4, §5, §6, §7

Ba/F3 EGFR-L861Q = settings: Mus musculus, BaF3, 72 h, 3 days
From the text: as §1, §2, §3, §4, §5, §6, §7

Ba/F3 EGFR-S768I = settings: Mus musculus, BaF3, 72 h, 3 days
From the text: as §1, §2, §3, §4, §5, §6, §7

Ba/F3-EGFR-E709K-G719A = settings: 72 h, 3 days
From the text: as §1, §2, §3, §4, §5, §6, §7

Ba/F3-EGFR-L858R-L718Q = settings: 72 h, 3 days
From the text: as §1, §2, §3, §4, §5, §6, §7

Ba/F3-EGFR-L858R-L718V = settings: 72 h, 3 days
From the text: as §1, §2, §3, §4, §5, §6, §7

C=CC(=O)Nc1cc(Nc2nccc(-c3cn(C)c4ccccc34)n2)c(OC)cc1N(C)CCN(C)C [AZD9291, reference compound]
IC50 (Ba/F3 EGFR-Del19/C797S): 1980 nM | IC50 (Ba/F3 EGFR-Del19/G724S): 16.3 nM | IC50 (Ba/F3 EGFR-E709-710 > D): 197 nM | IC50 (Ba/F3 EGFR-E709A): 64.2 nM | IC50 (Ba/F3 EGFR-E709H): 124 nM | IC50 (Ba/F3 EGFR-E709V): 47.6 nM | IC50 (Ba/F3 EGFR-G719S): 55.4 nM | IC50 (Ba/F3 EGFR-G724S): 73 nM | IC50 (Ba/F3 EGFR-L718Q): > 1000 nM | IC50 (Ba/F3 EGFR-L747S/G719A): 92.1 nM | IC50 (Ba/F3 EGFR-L747S): 37.8 nM | IC50 (Ba/F3 EGFR-L747V): 53.7 nM | IC50 (Ba/F3 EGFR-L858R/C797S): 2190 nM | IC50 (Ba/F3 EGFR-L861Q): 24.6 nM | IC50 (Ba/F3 EGFR-S768I): 85.5 nM | IC50 (Ba/F3-EGFR-E709K-G719A): 164 nM | IC50 (Ba/F3-EGFR-L858R-L718Q): 942 nM | IC50 (Ba/F3-EGFR-L858R-L718V): 172 nM
